Measurements published in US7199120B2, “Pyrazolo-pyridine derivatives as antiherpes agents” (SmithKline Beecham Corporation, priority 2001, dated 2007).

Test system: HSV-1
Test: HSV-1 replication in infected Vero 76 cells, viral DNA hybridization capture assay
Type: cell-based, herpes simplex virus 1
Settings: Human alphaherpesvirus 1; HSV-1 (MOI=0.001) in Vero 76 cells, 40–48 hours incubation, chemiluminescent detection of HSV DNA
Description: Vero 76 cells were maintained in MEM with Earle's salts, L-glutamine, 8% FBS (Hyclone, A-1111-L) and 100 units/mL Penicillin-100 μg/mL Streptomycin. For assay conditions, FBS was reduced to 2%. Cells are seeded into 96-well tissue culture plates at a density of 5×10^4 cells/well after being incubated for 45 min at 37° C. in the presence of HSV-1 or HSV-2 (MOI=0.001). Test compounds are added to the wells and the plates are incubated at 37° C. for 40–48 hours. Cell lysates are prepared as follows: media was removed and replaced with 150 μL/well 0.2 N NaOH with 1% Igepal CA 630 or NP-40. Plates were incubated up to 14 days at room temperature in a humidified chamber to prevent evaporation.
For the detection probe, a gel-purified, digoxigenin-labeled, 710-bp PCR fragment of the HSV UL-15 sequence was utilized. PCR conditions included 0.5 μM primers, 180 μM dTTP, 20 μM dUTP-digoxigenin (Boehringer Mannheim 1558706), 200 μM each of dATP, dCTP, and dGTP, 1×PCR Buffer II (Perkin Elmer), 2.5 mM MgCl2, 0.025 units/μL of AmpliTaq Gold polymerase (Perkin Elmer), and 5 ng of gel-purified HSV DNA per 100 μL Extension conditions were 10 min at 95° C., followed by 30 cycles of 95° C. for 1 min, 55° C. for 30 sec, and 72° C. for 2 min. The amplification was completed with a 10-min incubation at 72° C. Primers were selected to amplify a 728 bp probe spanning a section of the HSV1 UL15 open reading frame (nucleotides 249–977). Single-stranded transcripts were purified with Promega M13 Wizard kits. The final product was mixed 1:1 with a mixture of 6 M GuSCN, 100 mM EDTA and 200 μg/mL herring sperm DNA and stored at 4° C.
The capture DNA plasmid (HSV UL13 region in pUC) was linearized by cutting with Xba I, denatured for 15 min at 95° C. and diluted immediately into Reacti-Bind DNA Coating Solution (Pierce, 17250, diluted 1:1 with TE buffer, pH 8) at 1 ng/μL 75 μL/well were added to Corning (#3922 or 9690) white 96-well plates and incubated at room temperature for at least 4 hrs before washing twice with 300 μL/well 0.2×SSC/0.05% Tween-20 (SSC/T buffer). The plates were then incubated overnight at room temperature with 150 μL/well 0.2 N NaOH, 1% IGEPAL and 10 μg/mL herring sperm DNA.
Twenty-seven (27) μL of cell lysate was combined with 45 μL of hybridization solution (final concentration: 3M GuSCN, 50 mM EDTA, 100 μg/ml salmon sperm DNA, 5× Denhardt's solution, 0.25×APE, and 5 ng of the digoxigenin-labeled detection probe). APE is 1.5 M NH4-acetate, 0.15 M ammonium phosphate monobasic, and 5 mM EDTA adjusted to pH 6.0. Mineral oil (50 μL) was added to prevent evaporation. The hybridization plates were incubated at 95° C. for 10 minutes to denature the DNA, then incubated at 42° C. overnight. The wells were washed 6× with 300 μl/well SSC/T buffer then incubated with 75 μL/well anti-digoxigenin-HRP-conjugated antibody (Boehringer Mannheim 1207733, 1:5000 in TE) for 30 min at room temperature. The wells were washed 6× with […] with PBS/0.05% Tween-20 before 75 μL/well SuperSignal LBA substrate (Pierce) was added. The plates were incubated at room temperature for 30 minutes and chemiluminescence was measured in a Wallac Victor reader.

Row | IC50 [nM] | SMILES
1 | 1500 | c1cc(NC2CCCC2)n2nc(-c3ccncc3)c(-c3ccnc(NC4CCCC4)n3)c2c1 [Example 1, N-Cyclopentyl-3-[2-(cyclopentylamino)-4-pyrimidinyl]-2-(4-pyridinyl)pyrazolo[1,5-a]pyridin-7-amine]
2 | 600 | c1cncc(-c2nn3c(NC4CCCC4)cccc3c2-c2ccnc(NC3CCCC3)n2)c1 [Example 3, N-cyclopentyl-3-[2-(cyclopentylamino)-4-pyrimidinyl]-2-(3-pyridinyl)pyrazolo[1,5-a]pyridin-7-amine]
3 | 3100 | c1ccn2nc(-c3ccnc(NC4CCCC4)n3)c(-c3ccnc(NC4CCCC4)n3)c2c1 [Example 4, N-Cyclopentyl-N-(4-{2-[2-(cyclopentylamino)-4-pyrimidinyl]pyrazolo[1,5-a]pyridin-3-yl]-2-pyrimidinyl)amine]
4 | 400 | c1cc(NC2CCCC2)n2nc(-c3ccnc(NC4CCCC4)n3)c(-c3ccnc(NC4CCCC4)n3)c2c1 [Example 6, N-Cyclopentyl-2,3-bis[2-(cyclopentylamino)-4-pyrimidinyl]pyrazolo[1,5-a]pyridin-7-amine]
5 | 800 | CCCCNc1nccc(-c2nn3c(NCCCC)cccc3c2-c2ccnc(NCCCC)n2)n1 [Example 8, N-Butyl-2,3-bis[2-(butylamino)pyrimidin-4-yl]pyrazolo[1,5-a]pyridin-7-amine]
6 | 23000 | c1cc(NC2CC2)n2nc(-c3ccnc(NC4CC4)n3)c(-c3ccnc(NC4CC4)n3)c2c1 [Example 9, N-Cyclopropyl-2,3-bis[2-(cyclopropylamino)pyrimidin-4-yl]pyrazolo[1,5-a]pyridin-7-amine]
7 | 33000 | c1cc(N2CCOCC2)n2nc(-c3ccnc(N4CCOCC4)n3)c(-c3ccnc(N4CCOCC4)n3)c2c1 [Example 10]
8 | 1600 | CC(C)CNc1nccc(-c2nn3c(NCC(C)C)cccc3c2-c2ccnc(NCC(C)C)n2)n1 [Example 11, N-Isobutyl-2,3-bis[2-(isobutylamino)pyrimidin-4-yl]pyrazolo[1,5-a]pyridin-7-amine]
9 | 36000 | c1ccc(CNc2nccc(-c3nn4c(NCc5ccccc5)cccc4c3-c3ccnc(NCc4ccccc4)n3)n2)cc1 [Example 12, N-Benzyl-2,3-bis[2-(benzylamino)pyrimidin-4-yl]pyrazolo[1,5-a]pyridin-7-amine]
10 | 3300 | CC(C)Nc1nccc(-c2nn3c(NC(C)C)cccc3c2-c2ccnc(NC(C)C)n2)n1 [Example 13, N-Isopropyl-2,3-bis[2-(isopropylamino)pyrimidin-4-yl]pyrazolo[1,5-a]pyridin-7-amine]
11 | 2900 | CC(C)Nc1cc(-c2nn3c(NC(C)C)cccc3c2-c2ccnc(NC3CC3)n2)ccn1 [Example 17, 3-[2-(Cyclopropylamino)-4-pyrimidinyl]-N-isopropyl-2-[2-(isopropylamino)-4-pyridinyl]pyrazolo[1,5-a]pyridin-7-amine]
12 | 1000 | CC(C)Nc1nccc(-c2c(-c3ccnc(NC4CCCC4)c3)nn3c(NC4CCCC4)cccc23)n1 [Example 18, N-Cyclopentyl-2-[2-(cyclopentylamino)-4-pyridinyl]-3-[2-(isopropylamino)-4-pyrimidinyl]pyrazolo[1,5-a]pyridin-7-amine]
13 | 700 | CC(C)Nc1cc(-c2nn3c(NC(C)C)cccc3c2-c2ccnc(NC3CCCC3)n2)ccn1 [Example 19, 3-[2-(Cyclopentylamino)-4-pyrimidinyl]-N-isopropyl-2-[2-(isopropylamino)-4-pyridinyl]pyrazolo[1,5-a]pyridin-7-amine]
14 | 500 | CC(C)Nc1cc(-c2nn3c(NC4CCCC4)cccc3c2-c2ccnc(NC3CCCC3)n2)ccn1 [Example 20, N-Cyclopentyl-3-[2-(cyclopentylamino)-4-pyrimidinyl]-2-[2-(isopropylamino)-4-pyridinyl]pyrazolo[1,5-a]pyridin-7-amine]
15 | 500 | c1coc(-c2nn3c(NC4CCCC4)cccc3c2-c2ccnc(NC3CCCC3)c2)c1 [Example 21, N-Cyclopentyl-3-[2-(cyclopentylamino)-4-pyridinyl]-2-(2-furyl)pyrazolo[1,5-a]pyridin-7-amine]
16 | 200 | Cc1ccoc1-c1nn2c(NC3CCCC3)cccc2c1-c1ccnc(NC2CCCC2)n1 [Example 22, N-Cyclopentyl-3-[2-(cyclopentylamino)-4-pyrimidinyl]-2-(3-methyl-2-furyl)pyrazolo[1,5-a]pyridin-7-amine]
17 | 800 | Cc1ccoc1-c1nn2c(NC3CCCC3)cccc2c1-c1ccnc(NC2CC2)n1 [Example 23, N-Cyclopentyl-3-[2-(cyclopropylamino)-4-pyrimidinyl]-2-(3-methyl-2-furyl)pyrazolo[1,5-a]pyridin-7-amine]
18 | 5000 | Cc1ccoc1-c1nn2c(NC3CC3)cccc2c1-c1ccnc(NC2CC2)n1 [Example 24, N-Cyclopropyl-3-[2-(cyclopropylamino)-4-pyrimidinyl]-2-(3-methyl-2-furyl)pyrazolo[1,5-a]pyridin-7-amine]
19 | 500 | c1coc(-c2nn3c(NC4CCCC4)cccc3c2-c2ccnc(NC3CCCC3)n2)c1 [Example 25, N-Cyclopentyl-3-[2-(cyclopentylamino)-4-pyrimidinyl]-2-(2-furyl)pyrazolo[1,5-a]pyridin-7-amine]
20 | 1400 | c1coc(-c2nn3c(NC4CC4)cccc3c2-c2ccnc(NC3CCCC3)n2)c1 [Example 26, 3-[2-(Cyclopentylamino)-4-pyrimidinyl]-N-cyclopropyl-2-(2-furyl)pyrazolo[1,5-a]pyridin-7-amine]
21 | 500 | Brc1ccc(-c2nn3c(NC4CCCC4)cccc3c2-c2ccnc(NC3CCCC3)n2)o1 [Example 27, 2-(5-Bromo-2-furyl)-N-cyclopentyl-3-[2-(cyclopentylamino)-4-pyrimidinyl]pyrazolo[1,5-a]pyridin-7-amine]
22 | 1700 | Cc1nc(-c2nn3c(NC4CCCC4)cccc3c2-c2ccnc(NC3CCCC3)c2)cs1 [Example 28, N-Cyclopentyl-3-[2-(cyclopentylamino)-4-pyridinyl]-2-(2-methyl-1,3-thiazol-4-yl)pyrazolo[1,5-a]pyridin-7-amine]
